Structures are written as SMILES.

Format in all cases: physicochemical
A short description of series [1]: Brightness of hydroporphyrin monomers vs. porphyrin-hydroporphyrin dyads at 405 nm excitation. The conditions noted are these: for fold change: brightness of dyad vs. corresponding hydroporphyrin monomer, 405 nm; for FWHM: emission peak narrowness; for QY (x405): fluorescence quantum yield in toluene at room temperature; for ext coeff (405 nm): molar absorption coefficient at 405 nm, in M-1 cm-1 (unit assumed); for brightness (405 nm): product of molar absorption coefficient at 405 nm and fluorescence quantum yield, in M⁻¹cm⁻¹; for brightness (405 nm) / abs max B / em max: toluene, room temperature. Here is the method:
Brightness was calculated using an excitation wavelength of 405 nm for a hydroporphyrin monomer having an emission wavelength of approximately 660, 680, 715, or 800 nm and for a fluorescent compound including a porphyrin and a hydroporphyrin structurally similar to the hydroporphyrin monomer. Brightness was calculated as the product of the molar absorption coefficient at 405 nm and the fluorescence quantum yield in toluene at room temperature. Table 3 provides the emission wavelength of the hydroporphyrin monomer and the corresponding dyad, the brightness of the hydroporphyrin monomer excited at 405 nm, the brightness of the dyad excited at 405 nm, and the fold change in brightness of the hydroporphyrin monomer compared to the brightness of the dyad.

A short description of series [2]: Dyad photophysical properties in toluene, excited at 405 nm. Details: ext coeff (abs max B) / brightness (abs max): unit not given here. The following applies: for ext coeff (405 nm) / brightness (405 nm): at 405 nm; for ext coeff (405 nm) / FWHM / QY (x405) / abs max B / abs max Qx / abs max Qy / ext coeff (abs max B) / em max: room temperature; for ext coeff (405 nm): in M-1 cm-1 (unit assumed); for FWHM: emission peak; for FWHM / QY (x405) / em max: excited at 405 nm; for QY (x405): fluorescence quantum yield; for brightness (405 nm) / brightness (abs max): molar absorption coefficient x fluorescence quantum yield; for brightness (405 nm): in M⁻¹cm⁻¹; for brightness (abs max): at abs max. On the procedure:
(§1) The photophysical properties of samples were tested in toluene at room temperature and excited at 405 nm.

Series [3] is described as follows: Comparison porphyrin photophysical properties in toluene, excited at 405 nm. The conditions noted are these: for ext coeff (405 nm) / brightness (405 nm): at 405 nm; for ext coeff (405 nm) / QY (x405) / abs max B / abs max Qx / em max / ext coeff (abs): room temperature; for ext coeff (405 nm) / ext coeff (abs): in M-1 cm-1 (unit assumed); for QY (x405): fluorescence quantum yield; for QY (x405) / em max: excited at 405 nm; for brightness (405 nm) / brightness (abs max): molar absorption coefficient x fluorescence quantum yield; for brightness (405 nm): in M⁻¹cm⁻¹; for brightness (abs max): at abs max. On the procedure:
as §1

A short description of series [4]: Fluorescence emission spectra in toluene (FIG. 5-8). The conditions noted are these: for Brightness (molar absorption coefficient×fluorescence quantum yield): in M⁻¹cm⁻¹; for residual porphyrin emission in fluorescence spectrum: toluene, room temperature, FIG. 5, FIG. 6. Here is the method: Emission spectra were collected in toluene at room temperature. […] P5-C3 contains a more rigid linker between chlorin and porphyrin than in P3-C1, which results in greater spatial separation of the two components and lower energy transfer.
Brightness (molar absorption coefficient×fluorescence quantum yield): 84,700 (P3-C1), 13,900 (P5-C3).
Emission spectra were collected using 0.5 uM solutions in toluene. Brightness (molar absorption coefficient×fluorescence quantum yield): 19,900 (P11-BC3 meso), 45,100 (P11-BC1 beta).

Setting [5] is: FIG. 7, same sample concentration.

`COC(=O)c1ccc(-c2c3nc(cc4[nH]c(cc5nc(cc6[nH]c2cc6-c2ccc(CNC(=O)c6ccc(C7=C8C=CC(=N8)C=c8ccc9[n]8[Zn][n]8c(ccc87)C=C7C=CC(=N7)C=9)cc6)cc2)CC5(C)C)cc4-c2ccccc2)C=C3)cc1` [P2-C1, methyl ester]: in series [1], the fold change was 2.5, the FWHM worked out at 18 nm, the “QY (x405)” value was 0.25 and the “ext coeff (405 nm)” value is recorded as 346,400. In addition, in series [1], the “brightness (405 nm)” value is reported as 87,748, the “abs max B” value was 407 nm and the em max is 656 nm. Moreover, in series [2], the “ext coeff (405 nm)” value is given as 346,400, the FWHM stood at 18 nm, the “QY (x405)” value is on record as 0.25 and the “brightness (405 nm)” value was 87,748. Moreover, in series [2], the “brightness (abs max)” value is 94,791, the “abs max B” value amounted to 407 nm, the “abs max Qx” value is reported as 533 nm and the “abs max Qy” value is recorded as 652 nm. In addition, in series [2], the “ext coeff (abs max B)” value is 374,100 and the em max came to 656 nm.
Consider `Cc1cc(C)c(-c2c3nc(cc4ccc([nH]4)c(-c4ccc(C(=O)NCc5ccc(B6OC(C)(C)C(C)(C)O6)cc5)cc4)c4nc(cc5ccc2[nH]5)C=C4)C=C3)c(C)c1` [Dyad P3], for which, in series [3], the “ext coeff (405 nm)” value is 234,100, the “QY (x405)” value was found to be 0.04, the “brightness (405 nm)” value was 9,628 and the “brightness (abs max)” value was 12,560. Also, in series [3], the “abs max B” value is given as 409 nm, the “abs max Qx” value turned out to be 503 nm, the em max came to 702 nm and the “ext coeff (abs)” value is reported as 305,400.
For the compound `CC1(C)OB(c2ccc(CNC(=O)c3ccc(C4=C5C=CC(=N5)C=c5ccc6[n]5[Zn][n]5c(ccc54)C=C4C=CC(=N4)C=6)cc3)cc2)OC1(C)C` [Dyad P2], in series [3], the “ext coeff (405 nm)” value is 209,100, the “QY (x405)” value amounted to 0.03, the “brightness (405 nm)” value is 5,899 and the “brightness (abs max)” value was 6,466. In addition, in series [3], the “abs max B” value came out at 407 nm, the “abs max Qx” value came to 533 nm, the em max is given as 623 nm and the “ext coeff (abs)” value is reported as 229,200.
Turning to `COC(=O)c1ccc(-c2c3nc(cc4ccc(cc5nc(cc6[nH]c2cc6C#Cc2ccc(CNC(=O)c6ccc(-c7c8nc(cc9ccc([nH]9)c(-c9c(C)cc(C)cc9C)c9nc(cc%10ccc7[nH]%10)C=C9)C=C8)cc6)cc2)CC5(C)C)[nH]4)C=C3)cc1` [Dyad P5-C3], in series [4] (setting [5]), the “Brightness (molar absorption coefficient×fluorescence quantum yield)” value is listed as 13,900. In addition, in series [4], the “residual porphyrin emission in fluorescence spectrum” value was “porphyrin emission is apparent”. Moreover, in series [2], the “ext coeff (405 nm)” value is on record as 171,800, the “QY (x405)” value turned out to be 0.08, the “brightness (405 nm)” value is on record as 13,934 and the “brightness (abs max)” value is 17,413. For the same compound, in series [2], the “abs max B” value is 409 nm, the “abs max Qx” value was 504 nm, the “abs max Qy” value is given as 657 nm and the “ext coeff (abs max B)” value was 214,700. This compound also had an em max in series [2] of 659 nm.
On to `COC(=O)c1c(C#Cc2ccc(-c3c4nc(cc5ccc(cc6nc(cc7ccc3[nH]7)C=C6)[nH]5)C=C4)cc2)c2cc3nc(c(OC)c4[nH]c(cc5nc(cc1[nH]2)CC5(C)C)c(C#Cc1ccc(-c2c5nc(cc6ccc(cc7nc(cc8ccc2[nH]8)C=C7)[nH]6)C=C5)cc1)c4C(=O)OC)CC3(C)C` [Dyad P1-BC2], for which, in series [1], the fold change came out at 18.6, the FWHM is 31 nm, the “QY (x405)” value was 0.19 and the “ext coeff (405 nm)” value is listed as 325,400. In series [1], the “brightness (405 nm)” value is given as 60,845, the “abs max B” value came out at 405 nm and the em max was 804 nm. Besides, in series [2], the “ext coeff (405 nm)” value is recorded as 325,400, the FWHM was 31 nm, the “QY (x405)” value turned out to be 0.19 and the “brightness (405 nm)” value is 60,845. Besides, in series [2], the “brightness (abs max)” value is recorded as 60,845, the “abs max B” value came to 405 nm, the “abs max Qx” value was determined as 499 nm and the “abs max Qy” value was 795 nm. Moreover, in series [2], the “ext coeff (abs max B)” value is 325,400 and the em max worked out at 804 nm.
In the case of `COC(=O)c1ccc(-c2c3nc(cc4[nH]c(cc5nc(cc6[nH]c2cc6C#Cc2ccc(-c6c7nc(cc8ccc(cc9nc(cc%10ccc6[nH]%10)C=C9)[nH]8)C=C7)cc2)CC5(C)C)cc4C#Cc2ccc(-c4c5nc(cc6ccc(cc7nc(cc8ccc4[nH]8)C=C7)[nH]6)C=C5)cc2)C=C3)cc1` [Dyad P1-C6], in series [1], the fold change was 6.4, the FWHM stood at 17 nm, the “QY (x405)” value stood at 0.34 and the “ext coeff (405 nm)” value is 238,800. For the same compound, in series [1], the “brightness (405 nm)” value was 80,567, the “abs max B” value is listed as 406 nm and the em max is 682 nm. In addition, in series [2], the “ext coeff (405 nm)” value was 238,800, the FWHM was found to be 17 nm, the “QY (x405)” value was 0.34 and the “brightness (405 nm)” value is given as 80,567. Moreover, in series [2], the “brightness (abs max)” value is given as 81,579, the “abs max B” value is recorded as 406 nm, the “abs max Qx” value is 499 nm and the “abs max Qy” value was found to be 680 nm. Also, in series [2], the “ext coeff (abs max B)” value was 241,800 and the em max worked out at 682 nm.
Regarding `COC(=O)c1ccc(-c2c3nc(cc4[nH]c(cc5nc(cc6[nH]c2cc6-c2ccc(CNC(=O)c6ccc(-c7c8nc(cc9ccc([nH]9)c(-c9c(C)cc(C)cc9C)c9nc(cc%10ccc7[nH]%10)C=C9)C=C8)cc6)cc2)CC5(C)C)cc4-c2ccccc2)C=C3)cc1` [Dyad P3-C1], the “Brightness (molar absorption coefficient×fluorescence quantum yield)” value in series [4] (setting [5]) was 84,700. For the same compound, the “residual porphyrin emission in fluorescence spectrum” value in series [4] is “no residual emission from the porphyrin”. Moreover, in series [2], the “ext coeff (405 nm)” value was 350,200, the FWHM worked out at 18 nm, the “QY (x405)” value came to 0.24 and the “brightness (405 nm)” value was 84,723. Further, in series [2], the “brightness (abs max)” value is given as 106,623, the “abs max B” value was determined as 410 nm, the “abs max Qx” value stood at 505 nm and the “abs max Qy” value was found to be 652 nm. Further, in series [2], the “ext coeff (abs max B)” value is 440,633 and the em max is 656 nm.
With `COC(=O)c1ccc(-c2c(C(=O)OC)c3cc4nc(cc5[nH]c(c(OC)c6nc(cc2[nH]3)C(C)(C)C6)c(C(=O)OC)c5C#Cc2ccc(C3=C5C=CC(=N5)C=c5ccc6[n]5[Zn][n]5c(ccc53)C=C3C=CC(=N3)C=6)cc2)C(C)(C)C4)cc1` [Dyad P8-BC2], in series [2], the “ext coeff (405 nm)” value is reported as 227,600, the FWHM stood at 29 nm, the “QY (x405)” value is listed as 0.20 and the “brightness (405 nm)” value is 46,569. Moreover, in series [2], the “brightness (abs max)” value is 52,298, the “abs max B” value is 408 nm, the “abs max Qx” value was 538 nm and the “abs max Qy” value was 769 nm. Besides, in series [2], the “ext coeff (abs max B)” value is recorded as 255,600 and the em max is on record as 777 nm.
On to `COc1c2nc(cc3ccc([nH]3)c(-c3ccc(-c4c5nc(cc6ccc(cc7nc(cc8ccc4[nH]8)C=C7)[nH]6)C=C5)cc3)c3nc(cc4ccc1[nH]4)C(C)(C)C3)C(C)(C)C2` [Dyad P11-BC3], for which the “Brightness (molar absorption coefficient×fluorescence quantum yield)” value in series [4] (FIG. 8, 0.5 uM solutions in toluene, meso vs. beta linkage) is reported as 19,900. For the same compound, in series [1], the fold change is reported as 64.9, the FWHM was 15 nm, the “QY (x405)” value is listed as 0.17 and the “ext coeff (405 nm)” value is listed as 118,100. In series [1], the “brightness (405 nm)” value was 19,871, the “abs max B” value was 407 nm and the em max was 714 nm. Moreover, in series [2], the “ext coeff (405 nm)” value is on record as 118,100, the FWHM is 15 nm, the “QY (x405)” value came to 0.17 and the “brightness (405 nm)” value was 19,871. Further, in series [2], the “brightness (abs max)” value was 20,998, the “abs max B” value was determined as 407 nm, the “abs max Qx” value is 511 nm and the “abs max Qy” value was 714 nm. Moreover, in series [2], the “ext coeff (abs max B)” value is listed as 124,800 and the em max is given as 714 nm.

For the origin of these results see patent US20250295815A1, “PORPHYRIN-HYDROPORPHYRIN COMPOUNDS, COMPOSITIONS COMPRISING THE SAME AND METHODS OF USE THEREOF” (North Carolina State University, priority 2021, published 2025).
